Assay [1] concerns the target T1, Peroxisomal acyl-coenzyme A oxidase 3 (Homo sapiens, UniProt O15254).
T1 sequence (O15254 whole entry): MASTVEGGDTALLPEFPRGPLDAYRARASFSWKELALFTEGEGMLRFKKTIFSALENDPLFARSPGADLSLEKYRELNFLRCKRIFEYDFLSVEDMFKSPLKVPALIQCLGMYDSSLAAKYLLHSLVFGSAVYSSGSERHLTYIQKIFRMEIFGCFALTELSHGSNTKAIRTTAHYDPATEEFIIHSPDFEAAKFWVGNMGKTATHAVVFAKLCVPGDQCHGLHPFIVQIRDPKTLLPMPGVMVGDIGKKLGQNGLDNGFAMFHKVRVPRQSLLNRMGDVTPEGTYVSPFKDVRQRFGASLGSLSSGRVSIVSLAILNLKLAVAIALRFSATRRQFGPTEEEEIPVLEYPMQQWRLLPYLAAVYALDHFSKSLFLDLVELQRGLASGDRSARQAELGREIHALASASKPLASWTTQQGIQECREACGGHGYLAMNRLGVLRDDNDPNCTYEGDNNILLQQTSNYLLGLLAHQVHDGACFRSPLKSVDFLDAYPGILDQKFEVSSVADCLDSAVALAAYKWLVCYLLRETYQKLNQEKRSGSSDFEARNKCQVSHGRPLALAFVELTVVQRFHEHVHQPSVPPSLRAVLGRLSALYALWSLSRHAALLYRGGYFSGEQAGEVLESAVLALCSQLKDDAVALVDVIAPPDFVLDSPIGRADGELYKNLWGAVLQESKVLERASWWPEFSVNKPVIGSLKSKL

For assay [2], the target named is T2, Serine/threonine-protein kinase 4 (Homo sapiens, UniProt Q13043).
T2 sequence (Q13043 whole entry): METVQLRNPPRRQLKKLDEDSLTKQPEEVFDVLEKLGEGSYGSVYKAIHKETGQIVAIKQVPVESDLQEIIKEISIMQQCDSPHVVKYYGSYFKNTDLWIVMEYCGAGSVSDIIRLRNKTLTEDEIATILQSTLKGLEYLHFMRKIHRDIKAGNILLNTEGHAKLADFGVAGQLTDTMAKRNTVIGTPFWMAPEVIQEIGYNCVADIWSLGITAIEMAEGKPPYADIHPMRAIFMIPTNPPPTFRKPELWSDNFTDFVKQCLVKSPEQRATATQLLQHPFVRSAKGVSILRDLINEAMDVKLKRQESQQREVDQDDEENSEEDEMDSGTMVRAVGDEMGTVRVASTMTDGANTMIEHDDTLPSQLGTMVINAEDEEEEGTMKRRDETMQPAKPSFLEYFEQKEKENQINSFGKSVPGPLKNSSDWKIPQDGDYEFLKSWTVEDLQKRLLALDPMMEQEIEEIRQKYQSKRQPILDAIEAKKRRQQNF

A further assay concerns the target T3, Ephrin type-B receptor 4 (Homo sapiens, UniProt P54760).
T3 sequence (P54760 whole entry): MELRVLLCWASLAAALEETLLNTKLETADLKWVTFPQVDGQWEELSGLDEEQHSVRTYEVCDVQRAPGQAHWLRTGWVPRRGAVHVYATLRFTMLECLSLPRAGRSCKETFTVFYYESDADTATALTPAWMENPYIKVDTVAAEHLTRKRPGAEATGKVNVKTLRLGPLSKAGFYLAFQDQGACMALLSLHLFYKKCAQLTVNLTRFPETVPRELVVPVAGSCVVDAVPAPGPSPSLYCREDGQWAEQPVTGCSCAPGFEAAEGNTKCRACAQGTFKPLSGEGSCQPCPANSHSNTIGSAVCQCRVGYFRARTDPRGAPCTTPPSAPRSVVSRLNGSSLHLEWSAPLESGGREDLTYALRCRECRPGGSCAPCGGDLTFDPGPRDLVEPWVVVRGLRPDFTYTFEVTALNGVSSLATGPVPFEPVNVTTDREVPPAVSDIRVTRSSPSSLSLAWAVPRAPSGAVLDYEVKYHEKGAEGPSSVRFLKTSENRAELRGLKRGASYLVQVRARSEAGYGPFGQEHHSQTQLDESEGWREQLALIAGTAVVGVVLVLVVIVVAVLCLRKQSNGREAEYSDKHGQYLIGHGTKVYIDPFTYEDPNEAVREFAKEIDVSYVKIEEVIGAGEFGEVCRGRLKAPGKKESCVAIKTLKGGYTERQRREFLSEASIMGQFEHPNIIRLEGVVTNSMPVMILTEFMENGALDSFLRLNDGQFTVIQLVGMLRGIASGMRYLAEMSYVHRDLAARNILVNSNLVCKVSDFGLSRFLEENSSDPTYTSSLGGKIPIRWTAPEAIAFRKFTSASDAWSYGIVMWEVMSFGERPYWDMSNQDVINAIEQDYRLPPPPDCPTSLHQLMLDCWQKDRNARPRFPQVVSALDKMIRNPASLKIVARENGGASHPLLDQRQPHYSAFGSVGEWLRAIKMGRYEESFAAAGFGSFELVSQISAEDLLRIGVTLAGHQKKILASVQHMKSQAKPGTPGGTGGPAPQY

The target of assay [3] is Mitogen-activated protein kinase 1 (Homo sapiens, UniProt P28482).
Chain of Mitogen-activated protein kinase 1 (P28482 whole entry): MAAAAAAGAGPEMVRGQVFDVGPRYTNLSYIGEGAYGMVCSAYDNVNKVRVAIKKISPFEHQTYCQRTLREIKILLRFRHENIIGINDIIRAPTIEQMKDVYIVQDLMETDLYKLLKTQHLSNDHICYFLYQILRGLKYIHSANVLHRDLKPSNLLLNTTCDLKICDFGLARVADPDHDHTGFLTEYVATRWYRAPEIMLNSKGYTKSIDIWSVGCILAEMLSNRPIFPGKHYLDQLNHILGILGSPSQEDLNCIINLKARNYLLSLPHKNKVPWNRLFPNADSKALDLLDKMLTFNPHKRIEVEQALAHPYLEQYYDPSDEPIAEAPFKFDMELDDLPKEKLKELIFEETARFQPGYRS
Assay [4] deals with Rho-associated protein kinase 2 (Homo sapiens, UniProt O75116).
Chain of Rho-associated protein kinase 2 (O75116 whole entry): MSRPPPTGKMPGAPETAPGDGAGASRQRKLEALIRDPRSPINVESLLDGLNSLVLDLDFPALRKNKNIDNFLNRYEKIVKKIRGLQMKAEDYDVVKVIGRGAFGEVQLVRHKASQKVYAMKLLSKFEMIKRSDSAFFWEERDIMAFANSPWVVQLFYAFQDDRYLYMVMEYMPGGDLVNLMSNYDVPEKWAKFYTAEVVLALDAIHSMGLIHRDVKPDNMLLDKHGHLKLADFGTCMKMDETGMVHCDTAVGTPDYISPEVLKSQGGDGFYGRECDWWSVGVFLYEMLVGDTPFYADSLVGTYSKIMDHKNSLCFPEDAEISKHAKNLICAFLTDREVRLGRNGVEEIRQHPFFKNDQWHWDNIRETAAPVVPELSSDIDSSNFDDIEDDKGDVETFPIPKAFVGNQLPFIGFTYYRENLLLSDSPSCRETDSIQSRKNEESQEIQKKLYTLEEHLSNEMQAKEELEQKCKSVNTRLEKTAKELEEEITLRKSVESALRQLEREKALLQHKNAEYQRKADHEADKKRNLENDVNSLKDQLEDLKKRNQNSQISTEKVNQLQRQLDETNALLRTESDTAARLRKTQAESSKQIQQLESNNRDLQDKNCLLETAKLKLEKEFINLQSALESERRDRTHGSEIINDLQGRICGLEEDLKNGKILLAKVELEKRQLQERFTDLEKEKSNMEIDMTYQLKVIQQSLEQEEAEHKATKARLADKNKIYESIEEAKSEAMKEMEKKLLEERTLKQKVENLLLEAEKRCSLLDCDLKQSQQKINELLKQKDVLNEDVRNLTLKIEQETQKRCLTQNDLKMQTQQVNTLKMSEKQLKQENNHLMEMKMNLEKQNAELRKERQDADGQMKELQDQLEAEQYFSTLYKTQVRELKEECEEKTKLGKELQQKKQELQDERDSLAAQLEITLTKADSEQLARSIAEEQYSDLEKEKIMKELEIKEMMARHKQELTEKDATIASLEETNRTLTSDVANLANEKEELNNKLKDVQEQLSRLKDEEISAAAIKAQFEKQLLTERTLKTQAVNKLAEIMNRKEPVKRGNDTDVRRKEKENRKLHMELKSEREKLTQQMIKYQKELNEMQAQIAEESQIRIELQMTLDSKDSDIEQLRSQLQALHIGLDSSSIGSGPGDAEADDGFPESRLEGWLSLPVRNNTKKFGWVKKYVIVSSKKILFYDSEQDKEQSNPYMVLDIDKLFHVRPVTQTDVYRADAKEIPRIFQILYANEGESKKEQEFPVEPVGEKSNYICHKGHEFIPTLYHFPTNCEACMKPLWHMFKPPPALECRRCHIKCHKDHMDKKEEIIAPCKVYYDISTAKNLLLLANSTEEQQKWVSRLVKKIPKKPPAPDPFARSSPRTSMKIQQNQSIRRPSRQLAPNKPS
The next assay deals with GTP-binding protein 4 (Homo sapiens, UniProt Q9BZE4).
Assay [5] deals with Serine/threonine-protein kinase 10 (Homo sapiens, UniProt O94804).
Chain of Serine/threonine-protein kinase 10 (O94804 whole entry): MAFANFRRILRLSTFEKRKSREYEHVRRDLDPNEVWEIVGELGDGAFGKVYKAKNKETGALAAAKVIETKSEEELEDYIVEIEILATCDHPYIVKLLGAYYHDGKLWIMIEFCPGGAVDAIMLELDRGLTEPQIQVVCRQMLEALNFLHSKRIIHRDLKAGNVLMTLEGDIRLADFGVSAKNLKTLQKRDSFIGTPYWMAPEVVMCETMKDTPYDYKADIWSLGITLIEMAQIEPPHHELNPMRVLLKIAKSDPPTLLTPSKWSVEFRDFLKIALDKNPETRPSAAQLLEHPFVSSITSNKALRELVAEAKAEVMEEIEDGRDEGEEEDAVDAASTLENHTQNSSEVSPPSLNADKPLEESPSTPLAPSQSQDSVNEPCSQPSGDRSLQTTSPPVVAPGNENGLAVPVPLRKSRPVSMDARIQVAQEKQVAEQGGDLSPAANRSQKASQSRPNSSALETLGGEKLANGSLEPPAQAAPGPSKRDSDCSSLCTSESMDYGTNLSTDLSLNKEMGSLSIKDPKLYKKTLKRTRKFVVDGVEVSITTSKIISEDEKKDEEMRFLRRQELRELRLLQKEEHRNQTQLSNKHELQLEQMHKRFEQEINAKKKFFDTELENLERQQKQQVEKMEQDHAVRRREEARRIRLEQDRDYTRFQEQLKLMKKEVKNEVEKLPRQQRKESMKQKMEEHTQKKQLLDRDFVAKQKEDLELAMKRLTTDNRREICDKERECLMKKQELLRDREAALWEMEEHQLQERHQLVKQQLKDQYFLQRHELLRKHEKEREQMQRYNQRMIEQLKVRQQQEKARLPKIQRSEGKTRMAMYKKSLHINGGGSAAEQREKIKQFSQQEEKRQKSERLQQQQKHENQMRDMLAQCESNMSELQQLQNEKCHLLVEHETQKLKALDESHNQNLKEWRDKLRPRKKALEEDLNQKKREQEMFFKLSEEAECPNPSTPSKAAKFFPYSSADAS

What is called Kd is the concentration at which binding is half-saturated.

Active and inactive are the calls of the source.
Note: in the data inactive means no Kd found up to 30 µM.

As for `Cc1nc2cc(-c3nn(C(C)C)c4ncnc(N)c34)ccc2o1`, the Kd (in assay [1]; in assay [2]; at Ephrin type-B receptor 4; in assay [3]; in assay [4]; on GTP-binding protein 4) was > 30 µM (inactive) in each case.
In the case of `COc1cc(Nc2ncc3c(n2)-c2ccc(Cl)cc2C(c2c(F)cccc2OC)=NC3)ccc1C(=O)O` [ALISERTIB], the Kd (in assay [1]; in assay [2]; in assay [5]; at GTP-binding protein 4) was > 30 µM (inactive) each time.
Take `CNC(=O)c1ccccc1Sc1ccc2c(/C=C/c3ccccn3)n[nH]c2c1` [AXITINIB]: the Kd (in assay [1]; on GTP-binding protein 4) was > 30 µM (inactive) throughout.
For `CC(C)(C)c1nc(-c2cccc(NS(=O)(=O)c3c(F)cccc3F)c2F)c(-c2ccnc(N)n2)s1` [DABRAFENIB], the Kd (in assay [1]; in assay [2]; in assay [3]; in assay [4]; on GTP-binding protein 4) was > 30 µM (inactive) in each case.
Consider `Cn1cc(C2=C(c3cn(C4CCN(Cc5ccccn5)CC4)c4ccccc34)C(=O)NC2=O)c2ccccc21` [ENZASTAURIN], for which the Kd (in assay [1]; at GTP-binding protein 4) was > 30 µM (inactive) each time.
On to `C[C@@H](Oc1cc(-n2cnc3ccc(CN4CCN(C)CC4)cc32)sc1C(N)=O)c1ccccc1C(F)(F)F` [GSK-461364], for which the Kd (in assay [1]; at GTP-binding protein 4) was > 30 µM (inactive) each time.
Turning to `Cc1[nH]c(/C=C2\C(=O)Nc3ccccc32)c(C)c1CCC(=O)O` [ORANTINIB], the Kd (in assay [1]; at Ephrin type-B receptor 4; at GTP-binding protein 4) was > 30 µM (inactive) each time.
For `NC(=O)c1c(OCc2c(F)cc(Br)cc2F)nsc1NC(=O)NCCCCN1CCCC1` [OSI-632], the Kd is > 30 µM (inactive) in assay [1]; > 30 µM (inactive) in assay [2]; > 30 µM (inactive) at Ephrin type-B receptor 4; 0.515 µM (active) in assay [5]; > 30 µM (inactive) at GTP-binding protein 4.
Regarding `CCOc1cc2ncc(C#N)c(Nc3ccc(F)c(Cl)c3)c2cc1NC(=O)/C=C/CN(C)C` [PELITINIB], the Kd (in assay [1]; at Ephrin type-B receptor 4; in assay [3]; in assay [4]; on GTP-binding protein 4) was > 30 µM (inactive) throughout.
Take `CC(=O)NCC(=O)N1[C@@H]2CC[C@H]1c1ccc(Nc3ncc(C(F)(F)F)c(NC4CCC4)n3)cc12` [PF-03814735]: the Kd in assay [1] was > 30 µM (inactive); in assay [2] it was 0.828 µM (active); on Ephrin type-B receptor 4, > 30 µM (inactive); in assay [5] it was 0.309 µM (active).
For `CNC(=O)c1cc(Oc2ccc(NC(=O)Nc3cc(C(C)(C)C)nn3-c3ccc4ncccc4c3)c(F)c2)ccn1` [REBASTINIB], the Kd in assay [1] was 16.1 µM; at Ephrin type-B receptor 4, > 30 µM (inactive); in assay [3] it was > 30 µM (inactive); in assay [4], > 30 µM (inactive); on GTP-binding protein 4, > 30 µM (inactive).
`O=C(NOCCO)c1cc(CN2OCCCC2=O)c(F)c(F)c1Nc1ccc(I)cc1F` [RO-4987655]: the Kd (in assay [1]; on GTP-binding protein 4) was > 30 µM (inactive) throughout.
`N#CC[C@H](C1CCCC1)n1cc(-c2ncnc3[nH]ccc23)cn1` [RUXOLITINIB]: the Kd (in assay [1]; on GTP-binding protein 4) was > 30 µM (inactive) in each case.
`CCS(=O)(=O)c1cccc(-c2cc(C(=O)NC3CCN(C)CC3)c(C)c3[nH]c4ncc(C)cc4c23)c1` [TAK-901]: the Kd was > 30 µM (inactive) in assay [1]; 0.656 µM (active) at Ephrin type-B receptor 4; 0.949 µM (active) in assay [5]; > 30 µM (inactive) in assay [3]; > 30 µM (inactive) in assay [4].
As for `CC(C)c1cc(CNc2nc(Nc3cc(C4CC4)[nH]n3)cc(N3CCN(C)CC3)n2)on1` [XL-228], the Kd in assay [1] was > 30 µM (inactive); on Ephrin type-B receptor 4, 0.292 µM (active); in assay [5], 0.379 µM (active); in assay [3] it was > 30 µM (inactive); in assay [4] it was > 30 µM (inactive); on GTP-binding protein 4, > 30 µM (inactive).

These data come from ChEMBL document CHEMBL3991601, “The target landscape of clinical kinase drugs” (Science, 2017).
